In US7423122B2, “N-terminal and C-terminal markers in nascent proteins” (priority 1999, dated 2008):
Values joined by “and” are separate entries in the source; they are usually repeats but may differ in a detail not shown here. Identical values can stand only once.

Experiments:
[1] = biological target: α-HL (Staphylococcus aureus, UniProt P09616)
[2] = biological target: α-hemolysin (Staphylococcus aureus, UniProt P09616)
[3] = test system: E. coli T7 S30 transcription/translation extract; assay type: biochemical
[4] = test system: E. coli S30 translation mixtures; assay type: biochemical
[5] = test system: E. coli T7 S30 transcription/translation extract; assay type: biochemical; remark: listed apart in the source
[6] = test system: rabbit red blood cells (rRBCs); assay type: cell-based

α-hemolysin, sequence (P09616 26-319, looked up, natural form): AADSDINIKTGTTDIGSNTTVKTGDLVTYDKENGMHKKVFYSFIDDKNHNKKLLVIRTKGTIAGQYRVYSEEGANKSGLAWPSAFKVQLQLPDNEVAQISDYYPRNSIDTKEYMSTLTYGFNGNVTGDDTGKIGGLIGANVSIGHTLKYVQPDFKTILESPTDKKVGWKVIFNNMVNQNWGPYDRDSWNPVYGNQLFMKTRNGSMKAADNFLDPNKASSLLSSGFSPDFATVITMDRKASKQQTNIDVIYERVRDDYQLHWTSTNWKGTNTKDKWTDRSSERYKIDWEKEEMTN
α-HL, sequence (P09616 26-319, looked up, natural form): as above

4,4-difluoro-5,7-dimethyl-4-bora-3a,4a-diaza-s-indacene [BODIPY-FL]
molar ratio of incorporated BODIPY-FL to protein [1]: 0.29+/−0.03%
amount of alpha-hemolysin detectable [2]: Approximately 10 ng
amount of protein detectable [2]: 0.3 ng
amount of α-hemolysin detectable [2]: 0.35-0.5 nanograms
smallest volume of original reaction mixture giving detectable α-HL band [2]: 0.007 µL

4,4-difluoro-5,7-dimethyl-4-bora-3a, 4a-diaza-s-indacene propionic acid, sulfosuccinimidyl ester [BODIPY-FL, SSE]
level of fluorescence of HL band compared to non-sulfonated form [3]: approximately 2 times

5-(and-6)-carboxyfluorescein, succinimidyl-ester [Fluorescein (FAM)]
fluorescence of α-HL band relative to BODIPY-FL-SSE [3]: 8.4%

6-(fluorescein-5-(and-6) carboxamido)hexanoic acid, succinimidyl ester [Fluorescein (SFX)]
fluorescence of α-HL band relative to BODIPY-FL-SSE [3]: 4.6%

6-(tetramethylrhodamine-5-(and-6)-carboxamido)hexanoic acid, succinimidyl ester [5/6-TAMRA]
fluorescence of α-HL band relative to BODIPY-FL-SSE [3]: 35%

Cc1c(CC(=O)ON2C(=O)CC(S(=O)(=O)O)C2=O)c(=O)oc2cc(N)ccc12 (stereo not drawn) [AMCA-sulfo-NHS, sulfosuccinimidyl 7-amino-4-methylcoumarin-3-acetate]
detectability / incorporation of fluorescent α-HL bands [4]: easily detectable bands

COc1ccc(-c2cnc(-c3cc[n+](Cc4cccc(C(=O)ON5C(=O)CCC5=O)c4)cc3)o2)cc1 [PyMPO, 1-(3-(succinimidyloxycarbonyl)benzyl)-4-(5-(4-methoxyphenyl)oxazol-2-yl) pyridininium bromide]
reduction in fluorescence compared with BODIPY-FL [3]: approximately an order of magnitude reduction in fluorescence

Alexa 350-N-hydroxy-succinimide ester
detectability / incorporation of fluorescent α-HL bands [4]: seems to not incorporate as well as its neutral counterpart

succinimidyl 7-amino-methyl-amino-coumarin acetate [AMCA-NHS]
detectability / incorporation of fluorescent α-HL bands [4]: very low levels of detectable fluorescent bands

α-Hemolysin
earliest time of band detection after initiation of incubation [5]: 5 min
α-Hemolysin activity [6]: 0.085 OD415 nm/μl and 0.083 OD415 nm/μl
